Consider 1 compound from paper PMC5762338, “A novel orally available Syk/Src/Jak2 inhibitor, SKLB-850, showed potent anti-tumor activities in B cell lymphoma (BCL) models” (Oncotarget, 2017).

Values joined by “and” are separate entries in the source; they are usually repeats but may differ in a detail not shown here. Equal values may be shown once. A value given as a limit tells only on which side of the number the result lay.

One assay concerns the target T1, Pim-1 (Homo sapiens, UniProt P11309).
T1 construct: purchased Millipore (Kinase Profiler service)
Kind of assay: Kinase inhibition, 33P radiometric assay (Millipore Kinase Profiler). Format: biochemical. The method, then:
(§1) Kinase inhibitory potency of SKLB-850 against a number of selected kinases were measured with gold-standard^33 P radio-labeled technology. […] For the remaining 11 kinases tested, SKLB-850 exibited very weak or no activity (IC50 > 10 μM).
(§2) The IC50 values of SKLB-850 for kinase inhibition in vitro were measured by radiometric assays conducted by Kinase Profiler service provided by Millipore as described in Pan’s study.

In another assay the target is T2, mTOR (Homo sapiens, UniProt P42345).
T2 construct: purchased Millipore (Kinase Profiler service)
The assay is described as above. Format: biochemical. The method, then: as §1, §2

A further assay concerns the target T3, GSK3α (Homo sapiens, UniProt P49840).
T3 construct: purchased Millipore (Kinase Profiler service)
The assay is described as above. Format: biochemical. As for the experimental part: as §1, §2

The target of another assay is T4, PKBα (Homo sapiens, UniProt P31749).
T4 construct: purchased Millipore (Kinase Profiler service)
The assay is described as above. Format: biochemical. As for the experimental part: as §1, §2

The target in a further assay is T5, Src (Homo sapiens, UniProt P12931).
T5 construct: purchased Millipore (Kinase Profiler service)
Described as above. Format: biochemical. As for the experimental part:
as §1, §2

The target in the next assay is T6, PKCα (Homo sapiens, UniProt P17252).
T6 construct: purchased Millipore (Kinase Profiler service)
The description is as above. Format: biochemical. As for the experimental part:
as §1, §2

A further assay deals with T7, FAK (Homo sapiens, UniProt Q05397).
T7 construct: purchased Millipore (Kinase Profiler service)
Described as above. Format: biochemical. The method, then: as §1, §2

The target of another assay is T8, EGRF (Homo sapiens, UniProt P00533).
T8 construct: purchased Millipore (Kinase Profiler service)
The assay is described as above. Format: biochemical. The conditions noted are these: EGRF (text: EGFR). The method, then: as §1, §2

In the next assay the target is T9, GRK1 (Homo sapiens, UniProt Q15835).
T9 construct: purchased Millipore (Kinase Profiler service)
The description is as above. Format: biochemical. As for the experimental part:
as §1, §2

For a further assay, the target named is T10, PIP4K2α (Homo sapiens, UniProt P48426).
T10 construct: purchased Millipore (Kinase Profiler service)
The description is as above. Format: biochemical. The method, then:
as §1, §2

A further assay has as its target T11, Syk (Homo sapiens, UniProt P43405).
T11 construct: purchased Millipore (Kinase Profiler service)
Described as above. Format: biochemical. The method, then: as §1, §2

The next assay deals with T12, Pim-2 (Homo sapiens, UniProt Q9P1W9).
T12 construct: purchased Millipore (Kinase Profiler service)
The assay is described as above. Format: biochemical. The method, then:
as §1, §2

The target of the next assay is T13, GSK3β (Homo sapiens, UniProt P49841).
T13 construct: purchased Millipore (Kinase Profiler service)
The description is as above. Format: biochemical. As for the experimental part:
as §1, §2

The target in a further assay is T14, EphB3 (Homo sapiens, UniProt P54753).
T14 construct: purchased Millipore (Kinase Profiler service)
The assay is described as above. Format: biochemical. As for the experimental part: as §1, §2

In the next assay the target is T15, JAK2 (Homo sapiens, UniProt O60674).
T15 construct: purchased Millipore (Kinase Profiler service)
Described as above. Format: biochemical. As for the experimental part:
as §1, §2

The next assay concerns the target T16, CDK3 (Homo sapiens, UniProt Q00526).
T16 construct: purchased Millipore (Kinase Profiler service)
The description is as above. Format: biochemical. The method, then:
as §1, §2

In a further assay the target is T17, MKK4 (Mus musculus, UniProt P47809).
T17 construct: purchased Millipore (Kinase Profiler service)
The description is as above. Format: biochemical. The method, then: as §1, §2

Assay [1] concerns Syk/ERK, Src/FAK and JAK2/STAT3 signaling pathways in Ramos cell. Kind of assay: Western blot of Syk/ERK, Src/FAK and JAK2/STAT3 signaling. The conditions noted are these: 24 hours. Also noted: Syk, Src, JAK2 phosphorylation (in words): dose or concentration left out as unconfirmed. Format: cell-based, Human. As for the experimental part:
To understand the mechanism of antitumor activities in vivo, pivotal protein activities of Syk/ERK, Src/FAK and JAK2/STAT3 signaling pathways were detected by Western blot analysis. […] Immunohistochemistry assays were performed using tumor tissues isolated from the Ramos tumor model at the end of treatment.
Figure 7 Western blot and histochemical analyses of tumor tissues from the Ramos model (A) SKLB-850 inhibited Syk/ERK, Src/FAK and JAK2/STAT3 signaling pathways. The Ramos cells were incubated for 24 hours in medium containing vehicle, SKLB-850, or R788, and then lysed for western blot assay. (B) H&E staining and immunohistochemical staining of NF-κB, p-Src, p-STAT3 and p-Syk in tumor tissues isolated from vehicle, R788 or SKLB-850 treated groups. SKBL-850 inhibited p-JAK2, p-FAK, p-Src, p-ERK and p-Syk expression in RAMOS cells.
For Ramos cell immunoplot studies, cancer cells were incubated with vehicle, R788, or SKLB-850 for 24 hours, and then lysed in RIPA buffer (Beyotime, China) containing Roche protease inhibitor cocktail, and the protein concentrations were determined by the Bradford method. […]
Background: Immunoblotting shows a protein as a band on a membrane.

The test system of assay [2] is CCL4 secretion of Ramos cells. Kind of assay: ELISA of chemokine secretion after anti-IgM and anti-CD40 stimulation. Format: cell-based, Human. As to conditions: anti-IgM and anti-CD40 induced, 0.1μM, 18 hours, n=3, stimulated without compound 134.80 ± 1.90 pg/mL. As for the experimental part:
(§3) We then measured the concentrations of CCL3 and CCL4 in supernatant of Ramos cells cultured in medium, or medium supplemented with anti-IgM and anti-CD40 in the presence or absence of SKLB-850 after 18 hours. CCL3 and CCL4 are chemokines, which appear to correlate with the signaling capacity of the BCR [26]. As shown in Figure 3A and 3B, SKLB-850 inhibited the increased secretion of CCL3 and CCL4 stimulated by anti-IgM and anti-CD40. The mean CCL3 and CCL4 concentrations in supernatants of Ramos cells after anti-IgM and CD40 stimulation were 3443.00 ± 134.80 pg/mL and 134.80 ± 1.90 pg/mL, respectively.
(§4) To evaluate the effect of SKLB-850 on CCL3 and CCL4 secretion after stimulation of Ramos cells with anti-IgM (30 μg/ml) and anti-CD40 (10 μg/ml), chemokine levels were measured in supernatants of activated BCL cells, as previously described. After 18 hours of anti-IgM and anti-CD40 co-culture, supernatants were harvested and assayed for CCL3 and CCL4 by quantitative enzyme-linked immunosorbent assays according to the manufacturer’s instructions (Quantikine, R&D Systems, Minneapolis, MN, USA).
(In general: An ELISA detects its analyte on a solid surface through an enzyme-linked reagent.)

Assay [3] has as its system CCL3 secretion of Ramos cells. The description is as above. Format: cell-based, Human. As to conditions: anti-IgM and anti-CD40 induced, 0.1μM, 18 hours, n=3, stimulated without compound 3443.00 ± 134.80 pg/mL. The method, then:
as §3, §4

Broadly, the IC50 is the concentration needed to halve the response being measured.

T8 sequence (P00533 25-1210): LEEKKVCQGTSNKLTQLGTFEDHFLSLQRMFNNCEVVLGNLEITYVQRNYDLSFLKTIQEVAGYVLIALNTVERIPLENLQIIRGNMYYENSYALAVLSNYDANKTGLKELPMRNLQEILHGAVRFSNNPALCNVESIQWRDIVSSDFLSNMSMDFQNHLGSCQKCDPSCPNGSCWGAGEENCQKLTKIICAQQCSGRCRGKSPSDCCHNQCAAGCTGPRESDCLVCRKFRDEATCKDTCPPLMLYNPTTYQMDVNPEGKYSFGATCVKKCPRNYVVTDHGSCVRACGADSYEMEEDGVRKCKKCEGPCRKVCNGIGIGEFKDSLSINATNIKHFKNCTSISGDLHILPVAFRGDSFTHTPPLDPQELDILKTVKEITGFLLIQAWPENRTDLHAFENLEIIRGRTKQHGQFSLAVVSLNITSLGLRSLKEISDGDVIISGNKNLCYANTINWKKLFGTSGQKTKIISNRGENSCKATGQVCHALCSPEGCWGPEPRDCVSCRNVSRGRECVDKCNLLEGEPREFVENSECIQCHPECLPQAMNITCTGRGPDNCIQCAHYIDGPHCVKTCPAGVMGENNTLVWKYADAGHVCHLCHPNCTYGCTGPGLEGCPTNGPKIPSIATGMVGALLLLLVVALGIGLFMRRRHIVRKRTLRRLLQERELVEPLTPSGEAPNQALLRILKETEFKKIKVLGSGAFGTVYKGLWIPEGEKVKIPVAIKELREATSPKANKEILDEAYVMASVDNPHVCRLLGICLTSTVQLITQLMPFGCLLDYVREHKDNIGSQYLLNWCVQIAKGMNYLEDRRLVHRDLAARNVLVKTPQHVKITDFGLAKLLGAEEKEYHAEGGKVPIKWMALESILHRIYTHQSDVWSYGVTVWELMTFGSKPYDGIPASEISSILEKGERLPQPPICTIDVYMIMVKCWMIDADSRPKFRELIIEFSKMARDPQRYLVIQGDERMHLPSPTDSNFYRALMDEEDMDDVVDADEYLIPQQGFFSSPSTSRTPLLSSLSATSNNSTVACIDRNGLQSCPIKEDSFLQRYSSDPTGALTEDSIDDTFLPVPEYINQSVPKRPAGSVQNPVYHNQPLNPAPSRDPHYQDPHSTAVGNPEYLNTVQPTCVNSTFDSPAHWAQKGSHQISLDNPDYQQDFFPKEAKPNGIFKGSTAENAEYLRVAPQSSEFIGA
T4 sequence (P31749 whole entry): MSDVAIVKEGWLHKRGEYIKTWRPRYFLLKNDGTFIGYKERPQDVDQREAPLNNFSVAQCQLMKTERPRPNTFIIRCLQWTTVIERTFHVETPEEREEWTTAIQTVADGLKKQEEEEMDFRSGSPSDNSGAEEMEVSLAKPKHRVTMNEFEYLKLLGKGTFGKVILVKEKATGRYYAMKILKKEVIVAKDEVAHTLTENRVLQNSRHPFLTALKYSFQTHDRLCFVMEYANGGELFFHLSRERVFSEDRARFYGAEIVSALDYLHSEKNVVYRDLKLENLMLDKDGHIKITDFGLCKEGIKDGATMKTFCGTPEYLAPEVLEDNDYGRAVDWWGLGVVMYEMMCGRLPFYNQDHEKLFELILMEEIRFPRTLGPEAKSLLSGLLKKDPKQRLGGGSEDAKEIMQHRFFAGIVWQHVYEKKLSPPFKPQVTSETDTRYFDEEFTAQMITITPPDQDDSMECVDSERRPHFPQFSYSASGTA
T17 sequence (P47809 2-397 limits assumed): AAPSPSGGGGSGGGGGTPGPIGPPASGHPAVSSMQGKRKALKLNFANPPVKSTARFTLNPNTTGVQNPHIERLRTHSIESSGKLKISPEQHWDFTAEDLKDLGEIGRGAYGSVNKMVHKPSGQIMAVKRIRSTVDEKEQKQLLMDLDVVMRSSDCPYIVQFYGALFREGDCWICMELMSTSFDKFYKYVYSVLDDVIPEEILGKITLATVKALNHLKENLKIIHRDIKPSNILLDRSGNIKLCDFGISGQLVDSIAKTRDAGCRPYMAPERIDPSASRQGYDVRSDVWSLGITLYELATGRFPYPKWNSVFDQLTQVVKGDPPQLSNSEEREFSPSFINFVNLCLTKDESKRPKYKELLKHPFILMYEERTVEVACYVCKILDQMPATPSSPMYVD
T5 sequence (P12931 whole entry): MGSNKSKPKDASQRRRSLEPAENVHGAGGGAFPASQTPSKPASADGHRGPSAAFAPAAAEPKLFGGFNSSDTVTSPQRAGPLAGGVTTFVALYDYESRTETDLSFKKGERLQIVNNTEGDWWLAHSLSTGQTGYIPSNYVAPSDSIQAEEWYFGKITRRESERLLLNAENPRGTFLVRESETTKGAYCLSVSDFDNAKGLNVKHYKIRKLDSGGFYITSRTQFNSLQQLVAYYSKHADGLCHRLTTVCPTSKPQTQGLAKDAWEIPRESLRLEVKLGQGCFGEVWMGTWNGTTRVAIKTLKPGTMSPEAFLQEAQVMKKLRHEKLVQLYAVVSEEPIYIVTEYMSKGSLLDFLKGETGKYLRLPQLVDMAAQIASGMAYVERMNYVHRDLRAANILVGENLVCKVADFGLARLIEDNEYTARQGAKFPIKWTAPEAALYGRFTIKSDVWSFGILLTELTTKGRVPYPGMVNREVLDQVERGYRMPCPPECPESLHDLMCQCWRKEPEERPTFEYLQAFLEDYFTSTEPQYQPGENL
T12 sequence (Q9P1W9 whole entry): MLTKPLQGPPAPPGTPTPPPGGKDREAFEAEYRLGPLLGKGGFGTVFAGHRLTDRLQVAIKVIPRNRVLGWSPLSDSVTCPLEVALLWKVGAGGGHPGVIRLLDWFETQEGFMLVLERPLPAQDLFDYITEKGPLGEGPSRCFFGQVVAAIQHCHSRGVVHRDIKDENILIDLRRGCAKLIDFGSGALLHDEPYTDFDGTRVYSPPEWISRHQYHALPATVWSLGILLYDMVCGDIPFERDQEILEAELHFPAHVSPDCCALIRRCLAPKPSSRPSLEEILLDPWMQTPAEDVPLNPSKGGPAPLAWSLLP
T16 sequence (Q00526 whole entry): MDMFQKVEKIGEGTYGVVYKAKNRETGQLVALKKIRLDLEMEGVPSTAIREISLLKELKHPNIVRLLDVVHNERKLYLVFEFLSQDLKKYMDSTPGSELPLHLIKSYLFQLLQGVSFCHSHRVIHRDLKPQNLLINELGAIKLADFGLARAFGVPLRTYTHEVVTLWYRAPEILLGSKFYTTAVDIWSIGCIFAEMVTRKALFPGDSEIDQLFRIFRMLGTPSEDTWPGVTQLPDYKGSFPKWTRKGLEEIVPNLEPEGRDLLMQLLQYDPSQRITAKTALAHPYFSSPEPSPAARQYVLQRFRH
T16 sequence (P24864 whole entry partner): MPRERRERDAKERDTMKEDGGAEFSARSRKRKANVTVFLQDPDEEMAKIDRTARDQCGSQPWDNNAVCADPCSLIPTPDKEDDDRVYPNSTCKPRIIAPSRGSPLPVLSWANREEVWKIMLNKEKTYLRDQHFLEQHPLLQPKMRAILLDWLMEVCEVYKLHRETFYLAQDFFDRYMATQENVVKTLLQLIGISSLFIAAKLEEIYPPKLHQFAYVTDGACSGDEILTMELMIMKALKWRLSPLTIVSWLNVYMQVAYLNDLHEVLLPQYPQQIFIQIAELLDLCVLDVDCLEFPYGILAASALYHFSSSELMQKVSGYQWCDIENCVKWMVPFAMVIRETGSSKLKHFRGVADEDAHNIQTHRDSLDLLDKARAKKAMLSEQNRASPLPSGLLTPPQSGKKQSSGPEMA
T14 sequence (P54753 34-998): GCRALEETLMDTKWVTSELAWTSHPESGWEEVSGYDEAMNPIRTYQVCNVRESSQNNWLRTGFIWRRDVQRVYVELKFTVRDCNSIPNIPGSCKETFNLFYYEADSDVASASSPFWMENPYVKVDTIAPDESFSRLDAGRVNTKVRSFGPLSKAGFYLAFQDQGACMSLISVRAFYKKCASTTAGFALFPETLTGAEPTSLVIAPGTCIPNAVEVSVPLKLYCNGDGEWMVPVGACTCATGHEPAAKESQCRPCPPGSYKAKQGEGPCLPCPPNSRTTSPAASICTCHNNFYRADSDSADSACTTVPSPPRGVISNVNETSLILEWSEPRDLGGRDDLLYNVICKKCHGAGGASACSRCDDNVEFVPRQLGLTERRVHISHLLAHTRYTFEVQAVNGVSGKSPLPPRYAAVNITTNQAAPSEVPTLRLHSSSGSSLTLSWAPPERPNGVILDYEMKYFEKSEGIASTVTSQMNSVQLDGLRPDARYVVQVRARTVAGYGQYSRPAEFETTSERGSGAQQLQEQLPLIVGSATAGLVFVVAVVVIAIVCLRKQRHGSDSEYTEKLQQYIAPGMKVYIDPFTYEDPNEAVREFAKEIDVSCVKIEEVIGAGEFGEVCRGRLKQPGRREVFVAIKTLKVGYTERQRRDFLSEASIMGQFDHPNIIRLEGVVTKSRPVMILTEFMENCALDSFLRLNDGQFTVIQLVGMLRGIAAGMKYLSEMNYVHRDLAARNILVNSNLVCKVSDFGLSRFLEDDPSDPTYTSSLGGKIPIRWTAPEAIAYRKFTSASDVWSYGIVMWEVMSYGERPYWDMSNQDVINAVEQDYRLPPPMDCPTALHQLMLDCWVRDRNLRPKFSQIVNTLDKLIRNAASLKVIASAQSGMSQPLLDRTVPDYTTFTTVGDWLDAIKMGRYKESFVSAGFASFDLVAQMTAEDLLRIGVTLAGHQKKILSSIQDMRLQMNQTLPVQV
T13 sequence (P49841 whole entry): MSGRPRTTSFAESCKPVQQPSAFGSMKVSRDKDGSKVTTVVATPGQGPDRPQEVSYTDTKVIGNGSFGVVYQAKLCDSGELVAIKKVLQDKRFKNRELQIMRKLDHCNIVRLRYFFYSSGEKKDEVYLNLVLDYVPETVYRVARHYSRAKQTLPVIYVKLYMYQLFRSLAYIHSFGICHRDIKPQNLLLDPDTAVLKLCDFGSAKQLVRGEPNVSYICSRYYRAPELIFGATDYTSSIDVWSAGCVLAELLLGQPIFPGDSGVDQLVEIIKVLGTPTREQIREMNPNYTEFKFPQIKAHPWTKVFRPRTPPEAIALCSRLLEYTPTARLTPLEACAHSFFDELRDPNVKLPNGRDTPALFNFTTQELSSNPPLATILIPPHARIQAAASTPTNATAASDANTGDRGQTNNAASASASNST

Turning to `CN1CCN(c2ccc(Nc3ncc(F)c(Nc4ccc(Cl)cc4C(N)=O)n3)cc2)CC1` [SKLB-850, 5-chloro-2-((5-fluoro-2-((4-(4-methylpiperazin-1-yl)phenyl)amino)pyrimidin-4-yl)amino) benzamide], the IC50 against Pim-1 was more than 10 µM; at mTOR, more than 10 µM; at GSK3α it was more than 10 µM; against PKBα, 3.18 µM; against Src it was 0.025 µM; against PKCα, more than 10 µM. Further, the IC50 was 0.39 µM on FAK; 0.26 µM and 0.255 µM against EGRF; more than 10 µM at GRK1; more than 10 µM against PIP4K2α; 0.041 µM on Syk; more than 10 µM on Pim-2. The IC50 is more than 10 µM at GSK3β; more than 10 µM on EphB3; 0.047 µM at JAK2; more than 10 µM on CDK3; more than 10 µM on MKK4. The “Syk, Src, JAK2 phosphorylation (in words)” value in [1] is given as “effectively inhibited”. The “phosphorylation levels of ERK, FAK and Stat3 (in words)” value in assay [1] (concentrations between 0.01μMl and 1μM/ml) is “down-regulated”. Moreover, the “CCL4 level in supernatant” value in [2] was 15.20 ± 0.30 pg/mL. The “CCL3 level in supernatant” value in [3] is listed as 2303.10 ± 109.40 pg/mL.
